Results: US9035056B2, “Pyrido[4,3-b]indole and pyrido[3,4-b]indole derivatives and methods of use” (Medivation Technologies, Inc., priority 2011, dated 2015)

What was measured:
[1] = biological target: T1, human recombinant histamine H1 receptor (Homo sapiens, UniProt P35367); assay: Histamine H1 radioligand binding ([3H]Pyrilamine); settings: 0.1 μM compound; for inhibition at 0.1 µM: read-out: Binding data (Percentage inhibition) Histamine H1 (0.1 μM)
T1 construct: expressed in transfected cells; host or cells: CHO-K1
T1 sequence (P35367 whole entry): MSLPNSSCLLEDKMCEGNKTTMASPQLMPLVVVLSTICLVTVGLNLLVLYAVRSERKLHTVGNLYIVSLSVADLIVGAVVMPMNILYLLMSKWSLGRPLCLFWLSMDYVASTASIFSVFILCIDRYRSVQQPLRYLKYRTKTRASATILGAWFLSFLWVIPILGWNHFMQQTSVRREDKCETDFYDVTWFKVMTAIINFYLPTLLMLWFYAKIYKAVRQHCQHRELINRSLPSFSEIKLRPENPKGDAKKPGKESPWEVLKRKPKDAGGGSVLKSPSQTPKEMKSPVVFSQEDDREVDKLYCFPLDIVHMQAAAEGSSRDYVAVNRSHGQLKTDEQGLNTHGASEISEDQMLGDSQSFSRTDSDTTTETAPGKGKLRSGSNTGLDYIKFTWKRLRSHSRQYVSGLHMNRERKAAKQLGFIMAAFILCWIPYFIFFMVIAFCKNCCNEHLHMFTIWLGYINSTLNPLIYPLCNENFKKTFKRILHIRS
Protocol: To evaluate in radioligand binding assays the activity of compounds of the invention, human recombinant histamine H1 receptor expressed in Chinese hamster ovary (CHO) K1 cells (De Backer, M. et al, Biochem. Biophys. Res. Comm. 197(3):1601, 1993) in a modified Tris-HCl buffer (50 mM Tris-HCl, pH 7.4, 2 mM MgCl2, 100 mM NaCl, 250 mM Sucrose) was used. Compounds of the invention were incubated with 1.2 nM [^3H]Pyrilamine for 180 min at 25° C. Non-specific binding was estimated in the presence of 1 μM Pyrilamine. Receptor proteins were filtered and washed, the filters were then counted to determine [^3H]Pyrilamine specifically bound. Compounds were screened at 1 μM or lower, using 1% DMSO as vehicle. Biochemical assay results are presented as the percent inhibition of specific binding in Table 3.

[2] = biological target: T2, human recombinant adrenergic α2A receptor (Homo sapiens, UniProt P08913); assay: Adrenergic α2A radioligand binding ([3H]MK-912); settings: 0.1 μM compound; for Percentage inhibition of ligand binding, Adrenergic α2A: 0.1 µM; for inhibition at 0.1 µM: read-out: Percentage inhibition of ligand binding, Adrenergic α2A
T2 construct: expressed in transfected cells; host or cells: insect Sf9 cells
T2 sequence (P08913 1-465): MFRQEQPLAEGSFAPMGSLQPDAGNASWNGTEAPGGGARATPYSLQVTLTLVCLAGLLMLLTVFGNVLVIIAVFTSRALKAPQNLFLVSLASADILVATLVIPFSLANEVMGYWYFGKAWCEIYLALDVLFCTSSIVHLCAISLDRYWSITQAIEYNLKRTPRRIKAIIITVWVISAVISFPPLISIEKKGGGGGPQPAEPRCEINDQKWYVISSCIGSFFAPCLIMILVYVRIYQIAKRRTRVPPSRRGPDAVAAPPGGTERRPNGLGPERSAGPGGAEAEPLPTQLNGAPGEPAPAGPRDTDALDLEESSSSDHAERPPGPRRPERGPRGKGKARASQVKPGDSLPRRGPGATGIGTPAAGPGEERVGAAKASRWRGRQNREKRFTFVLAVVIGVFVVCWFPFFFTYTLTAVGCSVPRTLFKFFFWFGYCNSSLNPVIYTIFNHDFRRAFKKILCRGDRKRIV
Protocol: To evaluate in radioligand binding assays the activity of compounds of the invention, human recombinant adrenergic α2A receptor expressed in insect Sf9 cells (Uhlen, S. et al, J. Pharmacol. Exp. Ther. 271:1558, 1994) in a modified Tris-HCl buffer (50 mM Tris-HCl, pH 7.4, 12.5 mM MgCl2, 2 mM EDTA) was used. Compounds of invention were incubated with 1 nM [^3H]MK-912 for 60 min at 25° C. MK-912 is (2S-trans)-1,3,4,5′,6,6′,7,12b-octahydro-1′,3′-dimethyl-spiro[2H-benzofuro[2,3-a]quinolizine-2,4′(1′H)-pyrimidin]-2′(3′H)-one hydrochloride Non-specific binding was estimated in the presence of 10 μM WB-4101 (2-(2,6-Dimethoxyphenoxyethyl)aminomethyl-1,4-benzodioxane hydrochloride). Receptor proteins were filtered and washed, the filters were then counted to determine [^3H]MK-912 specifically bound. Compounds were screened at 1 μM or lower, using 1% DMSO as vehicle. Biochemical assay results are presented as the percent inhibition of specific binding in Table 3.

[3] = biological target: T3, human recombinant adrenergic α2B receptor (Homo sapiens, UniProt P18089); assay: Adrenergic α2B radioligand binding ([3H]Rauwolscine); settings: for Percentage inhibition of ligand binding, Adrenergic α2B: 0.03 µM; for inhibition at 0.1 µM: 0.1 μM compound
T3 construct: expressed in transfected cells; host or cells: CHO-K1
T3 sequence (P18089 1-450): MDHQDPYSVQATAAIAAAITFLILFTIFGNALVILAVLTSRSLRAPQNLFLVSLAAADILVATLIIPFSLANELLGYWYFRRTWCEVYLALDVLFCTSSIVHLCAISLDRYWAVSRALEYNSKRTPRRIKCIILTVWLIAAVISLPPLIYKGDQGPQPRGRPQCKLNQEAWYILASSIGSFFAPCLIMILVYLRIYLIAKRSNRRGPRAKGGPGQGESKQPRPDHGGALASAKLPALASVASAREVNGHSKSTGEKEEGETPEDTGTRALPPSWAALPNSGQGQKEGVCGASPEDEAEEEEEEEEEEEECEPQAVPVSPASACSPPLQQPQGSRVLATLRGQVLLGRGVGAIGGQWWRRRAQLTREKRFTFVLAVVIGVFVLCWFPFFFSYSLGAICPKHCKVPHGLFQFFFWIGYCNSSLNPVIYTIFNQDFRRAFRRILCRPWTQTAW
Protocol: To evaluate in radioligand binding assays the activity of compounds of the invention, human recombinant adrenergic α2B receptor expressed in Chinese hamster ovary (CHO) K1 cells (Uhlen, S. et al, Eur. J. Pharmacol. 343(1):93, 1998) in a modified Tris-HCl buffer (50 mM Tris-HCl, pH 7.4, 12.5 mM MgCl2, 1 mM EDTA, 0.2% BSA) was used. Compounds of the invention were incubated with 2.5 nM [^3H]Rauwolscine for 60 min at 25° C. Non-specific binding was estimated in the presence of 10 μM Prazosin. Receptor proteins were filtered and washed, the filters were then counted to determine [^3H]Rauwolscine specifically bound. Compounds were screened at 1 μM or lower, using 1% DMSO as vehicle. Biochemical assay results are presented as the percent inhibition of specific binding in Table 3.

[4] = read-out: Percentage inhibition of ligand binding, Adrenergic α2B

Row | Binding data (Percentage inhibition) Histamine H1 (0.1 μM) [1] | Percentage inhibition of ligand binding, Adrenergic α2A [2] | Percentage inhibition of ligand binding, Adrenergic α2B ([3]; 0.03 μM compound) | inhibition at 0.03 µM ([3]; 0.03 μM compound, read-out: Percentage inhibition of ligand binding, Adrenergic α2B) | Structure (SMILES) | inhibition at 0.1 µM [2] | inhibition at 0.1 µM [1] | inhibition at 0.1 µM [3, 4]
1 | 13% | 4% | 40% | – | Cc1ccc2c(c1)c1c(n2CC2(O)CCCc3ncccc32)CCN(C)C1 (single isomer, unassigned) [ii-112b] | – | – | –
2 | 1% | – | 22% | – | Cc1ccc2c(c1)c1c(n2CC2(O)CCCc3cnccc32)CCN(C)C1 (single isomer, unassigned) [ii-74a] | 14% | – | –
3 | – | – | – | – | Cc1ccc2c(c1)c1c(n2/C=C2\CCCc3ccccc32)CCN(C)C1 [i-3] | 92% | 32% | 57%
4 | – | – | – | – | Cc1ccc2c(c1)c1c(n2/C=C2/CCCc3ccccc32)CCN(C)C1 [i-2] | 98% | 28% | 81%
5 | 13% | – | 23% | – | Cc1ccc2c(c1)c1c(n2CC2(O)CCCc3ccncc32)CCN(C)C1 (single isomer, unassigned) [ii-113a] | 9% | – | –
6 | 11% | 12% | 69% | – | Cc1ccc2c(c1)c1c(n2CC2(O)CCCc3cnccc32)CCN(C)C1 (single isomer, unassigned) [ii-74b] | – | – | –
7 | 4% | 15% | – | 58% | Cc1ccc2c(c1)c1c(n2CC2(O)CCCc3ncccc32)CCN(C)C1 (single isomer, unassigned) [ii-112a] | – | – | –
